According to patent US20110105397A1, “METHOD FOR TREATING HEART FAILURE WITH STRESSCOPIN-LIKE PEPTIDES” (priority 2009, published 2011):
Like-named read-outs stand apart in the source and are kept apart here. Where a SMILES comes first, the peptide text is derived from it. Where no end group is shown, it is not given here. The star is where a group is joined. Succinimide(1-Et,3-yl) = CCN1C(=O)CC(*)C1=O

Biological target: T1, human CRHR2 (Homo sapiens, UniProt Q13324)
T1 construct: expressed in transfected cells
T1 sequence (Q13324 1-411): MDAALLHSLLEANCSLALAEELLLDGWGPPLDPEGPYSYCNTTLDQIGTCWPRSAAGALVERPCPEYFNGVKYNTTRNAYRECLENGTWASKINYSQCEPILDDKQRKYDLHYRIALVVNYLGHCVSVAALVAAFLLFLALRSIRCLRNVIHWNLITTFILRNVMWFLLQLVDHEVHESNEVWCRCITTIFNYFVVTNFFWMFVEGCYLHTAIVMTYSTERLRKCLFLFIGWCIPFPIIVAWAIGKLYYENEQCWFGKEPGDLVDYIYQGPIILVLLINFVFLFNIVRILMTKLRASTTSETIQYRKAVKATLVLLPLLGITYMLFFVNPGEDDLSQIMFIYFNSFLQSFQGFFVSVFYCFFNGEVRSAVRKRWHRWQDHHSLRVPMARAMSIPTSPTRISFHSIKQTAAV
Test: cAMP assay, h-CRHR2 transfected SK-N-MC cells
Format: cell-based
Conditions: for EC50: read-out: pA50 (converted); for Log DR [M]: h-SCP control pA50 minus test compound pA50 within the same assay batch
Method: The concentration required for 50% maximum effect (A50) was 0.4 nM.
Human CRHR1 (accession number X72304) or CRHR2 (accession number U34587) were cloned into pcDNA3.1/Zeo expression vector and stably transfected into SK—N-MC cells by electroporation. Cells were maintained in MEM w/Earl's Salt with 10% FBS, 50 I.U. penicillin, 50 μg/ml streptomycin, 2 mM L-glutamine, 1 mM sodium pyruvate and 0.1 mM non-essential amino acids, 600 μg/ml G418. Cells were grown at 37° C. in 5% CO2
Cells were plated in 96-well tissue culture dishes (Biocoat from BD Biosciences) overnight at 50,000 cell/well. Cells were washed with PBS then resuspended in DMEM F-12 without phenol red, containing 10 μM isobutylmethylxanthine (IBMX). Cells were incubated with the peptides at concentrations ranging from 1 pM to 10 μM for 60 min at 37° Celsius. […] Forskolin (10 μM), a direct stimulant of adenylate cyclase, was used as positive control. The assays were stopped by the addition of 0.5 M HCl and mixing by orbital rotation for 2 h at 4° Celsius.
To assess the activity of the inventive polypeptide at the CRHR2, an intracellular cAMP measurement test using a Flash plate radioactive assay (Catalog No. Cus56088; Perkin Elmer, Mass., U.S.A.) was employed.
Transfected SK—N-MC cells were plated in 96-well Biocoat tissue culture dishes (BD Biosciences, San Jose, Calif., U.S.A) overnight at 50,000 cell/well. Cells were first washed with PBS and then suspended with DMEM/F-12 without phenol red, containing […]. Suspended cells were transferred into a 96-well flash plate coated with scintillant fluid. Cells were incubated with peptides ranging from 1 pM to 1 μM, for 60 min, at 37° Celsius. Forskolin at 10 μM was used as positive control. After ligand stimulation, cells were lysed by the addition of 0.5M HCl and mixed by orbital rotation for 2 h at 4° Celsius in order to release intracellular cAMP into the media.
Media containing released intracellular cAMP was transferred to a 96-well flash plate coated with scintillant fluid containing an anti-cAMP antibody. In this assay, intracellular cAMP competes with ^125I-labeled cAMP binding to the antibody. To generate a standard curve, cAMP ranging from 2.5 to 250 pmoles/ml was included in the experiment. [^125I]-cAMP was measured on a TopCount scintillation counter (Perkin Elmer, Mass., U.S.A).
Individual agonist concentration-response curve data were fitted to the Hill equation, see formula below, using GraphPad Prism (Graphpad Software, La Jolla, Calif., U.S.A.), to provide estimates of agonist concentration needed to generate one-half maximal response (A50), and the maximal asymptote (α) and Hill slope (nH) parameters. In this equation, [A] is the agonist concentration and E is the measured effect:
For display purposes the mean fitted parameter estimates were used to generate a single E/[A] curve shown superimposed on the mean experimental data. Potency estimates for agonists, pA50, are expressed as the negative logarithm of the midpoint of each curve and listed with their standard error of measurement (SEM). Logarithm base 10 of the agonist dose ratio (Log DR) values were calculated by subtraction of the test compound pA50 value from the corresponding h-SCP (SEQ ID NO:1) control pA50 value within the same assay batch. The SEM values of the Log DR values are given by the square root of the sum of the squared SEM values of the h-SCP (SEQ ID NO:1) control and test compound pA50 values.
Human and rat peptides (see Table 10) were used on the stimulation of h-CRHR1 or h-CRHR2 transfected SK—N-MC cells in the cAMP flash plate assay. Peptides were incubated for 1 hr at 37° Celsius. Curves were calculated using non-linear regression sigmoidal concentration-response analysis calculation in GraphPad Prism. The so obtained pA50 values are shown in Table 11 in addition to literature values. […]

[1] = Table 13, cysteine mutation, N-ethylmaleimide capping, pegylation

CC[C@H](C)[C@H](NC(=O)[C@H](CCC(N)=O)NC(=O)[C@H](C)NC(=O)[C@H](CCSC)NC(=O)[C@H](CC(C)C)NC(=O)[C@H](Cc1c[nH]cn1)NC(=O)[C@H](C)NC(=O)[C@H](CC(N)=O)NC(=O)[C@H](C)NC(=O)[C@H](C)NC(=O)[C@H](C)NC(=O)[C@H](CCC(N)=O)NC(=O)[C@H](CSC1CC(=O)N(CC)C1=O)NC(=O)[C@H](CCCNC(=N)N)NC(=O)[C@H](CC(C)C)NC(=O)[C@H](CC(N)=O)NC(=O)[C@H](CCCCN)NC(=O)[C@H](C)NC(=O)[C@H](CCCCN)NC(=O)[C@H](C)NC(=O)[C@@H](NC(=O)[C@H](CC(N)=O)NC(=O)[C@H](Cc1ccccc1)NC(=O)[C@H](CC(C)C)NC(=O)[C@H](CC(C)C)NC(=O)[C@H](CC(N)=O)NC(=O)[C@H](CCSC)NC(=O)[C@@H](NC(=O)[C@H](CC(N)=O)NC(=O)[C@@H](NC(=O)[C@@H]1CCCN1C(=O)[C@@H](NC(=O)[C@H](CC(=O)O)NC(=O)[C@H](CC(C)C)NC(=O)[C@H](CO)NC(=O)[C@H](CC(C)C)NC(=O)[C@@H](NC(=O)[C@H](Cc1ccccc1)NC(=O)[C@H](CCCCN)NC(=O)[C@@H](N)[C@@H](C)O)[C@@H](C)O)C(C)C)[C@@H](C)O)[C@@H](C)CC)[C@@H](C)CC)C(N)=O (stereo partly drawn) [SEQ ID NO: 47, TKFTLSLDVPTNIMNLLFNIAKAKNLRC(-NES)QA AANAH LMAQI-NH2] (H-TKFTLSLDVPTNIMNLLFNIAKAKNLRC(Succinimide(1-Et,3-yl))QAAANAHLMAQI-NH2)
EC50 [1]: 0.316 nM | Log DR [M] (Table 13): −0.03

CC[C@H](C)[C@H](NC(=O)[C@H](CCC(N)=O)NC(=O)[C@H](C)NC(=O)[C@H](CCSC)NC(=O)[C@H](CC(C)C)NC(=O)[C@H](Cc1c[nH]cn1)NC(=O)[C@H](C)NC(=O)[C@H](CC(N)=O)NC(=O)[C@H](CSC1CC(=O)N(CC)C1=O)NC(=O)[C@H](C)NC(=O)[C@H](C)NC(=O)[C@H](CCC(N)=O)NC(=O)[C@H](C)NC(=O)[C@H](CCCNC(=N)N)NC(=O)[C@H](CC(C)C)NC(=O)[C@H](CC(N)=O)NC(=O)[C@H](CCCCN)NC(=O)[C@H](C)NC(=O)[C@H](CCCCN)NC(=O)[C@H](C)NC(=O)[C@@H](NC(=O)[C@H](CC(N)=O)NC(=O)[C@H](Cc1ccccc1)NC(=O)[C@H](CC(C)C)NC(=O)[C@H](CC(C)C)NC(=O)[C@H](CC(N)=O)NC(=O)[C@H](CCSC)NC(=O)[C@@H](NC(=O)[C@H](CC(N)=O)NC(=O)[C@@H](NC(=O)[C@@H]1CCCN1C(=O)[C@@H](NC(=O)[C@H](CC(=O)O)NC(=O)[C@H](CC(C)C)NC(=O)[C@H](CO)NC(=O)[C@H](CC(C)C)NC(=O)[C@@H](NC(=O)[C@H](Cc1ccccc1)NC(=O)[C@H](CCCCN)NC(=O)[C@@H](N)[C@@H](C)O)[C@@H](C)O)C(C)C)[C@@H](C)O)[C@@H](C)CC)[C@@H](C)CC)C(N)=O (stereo partly drawn) [SEQ ID NO: 45, TKFTLSLDVPTNIMNLLFNIAKAKNLRAQAAC(-NES)NAH LMAQI-NH2] (H-TKFTLSLDVPTNIMNLLFNIAKAKNLRAQAAC(Succinimide(1-Et,3-yl))NAHLMAQI-NH2; N-terminus assumed)
EC50 [1]: 0.331 nM | Log DR [M] (Table 13): −0.01

H-TKFTLSLDVPTNIMNLLFNIAKAKNLRAQAAANCHLMAQI-NH2 [SEQ ID NO: 35, TKFTLSLDVPTNIMNLLFNIAKAKNLRAQAAANCHLMAQI-NH2]
EC50 [1]: 1.17 nM | Log DR [M] (Table 13): 0.70

H-TKFTLSLDVPTNIMNLLCNIAKAKNLRAQAAANAHLMAQI-NH2 [SEQ ID NO: 19, TKFTLSLDVPTNIMNLLCNIAKAKNLRAQAAANAHLMAQI-NH2]
EC50 [1]: 9.77 nM | Log DR [M] (Table 13): 1.67

TKFTLSLDVPTNIMNLCFNIAKAKNLRAQAAANAHLMAQI-NH2 [SEQ ID NO: 18, TKFTLSLDVPTNIMNLCFNIAKAKNLRAQAAANAHLMAQI-NH2]
EC50 [1]: 3.89 nM | Log DR [M] (Table 13): 1.11

CC[C@H](C)[C@H](NC(=O)[C@H](CCC(N)=O)NC(=O)[C@H](C)NC(=O)[C@H](CCSC)NC(=O)[C@H](CC(C)C)NC(=O)[C@H](CSC1CC(=O)N(CC)C1=O)NC(=O)[C@H](C)NC(=O)[C@H](CC(N)=O)NC(=O)[C@H](C)NC(=O)[C@H](C)NC(=O)[C@H](C)NC(=O)[C@H](CCC(N)=O)NC(=O)[C@H](C)NC(=O)[C@H](CCCNC(=N)N)NC(=O)[C@H](CC(C)C)NC(=O)[C@H](CC(N)=O)NC(=O)[C@H](CCCCN)NC(=O)[C@H](C)NC(=O)[C@H](CCCCN)NC(=O)[C@H](C)NC(=O)[C@@H](NC(=O)[C@H](CC(N)=O)NC(=O)[C@H](Cc1ccccc1)NC(=O)[C@H](CC(C)C)NC(=O)[C@H](CC(C)C)NC(=O)[C@H](CC(N)=O)NC(=O)[C@H](CCSC)NC(=O)[C@@H](NC(=O)[C@H](CC(N)=O)NC(=O)[C@@H](NC(=O)[C@@H]1CCCN1C(=O)[C@@H](NC(=O)[C@H](CC(=O)O)NC(=O)[C@H](CC(C)C)NC(=O)[C@H](CO)NC(=O)[C@H](CC(C)C)NC(=O)[C@@H](NC(=O)[C@H](Cc1ccccc1)NC(=O)[C@H](CCCCN)NC(=O)[C@@H](N)[C@@H](C)O)[C@@H](C)O)C(C)C)[C@@H](C)O)[C@@H](C)CC)[C@@H](C)CC)C(N)=O (stereo partly drawn) [SEQ ID NO: 43, TKFTLSLDVPTNIMNLLFNIAKAKNLRAQAAANAC(-NES) LMAQI-NH2] (H-TKFTLSLDVPTNIMNLLFNIAKAKNLRAQAAANAC(Succinimide(1-Et,3-yl))LMAQI-NH2)
EC50 [1]: 0.162 nM | Log DR [M] (Table 13): −0.32

TKFTLSLDVPTNIMNLLFNIAKAKNLRAQAAANAHLMAQI-OH [SEQ ID NO: 113, TKFTLSLDVPTNIMNLLFNIAKAKNLRAQAAANAHLMAQI]
fold less potent than the amidated parent peptide: approximately 200 fold | nH (Table 12): 1.07 | EC50 (Table 12, amidation and N-terminal deletions, normalized to maximum response to h-SCP, 3-5 replicate experiments): 79.4 nM | αmax (Table 12, normalized to the maximum response to h-SCP): 107.4

CC[C@H](C)[C@H](NC(=O)[C@H](CCC(N)=O)NC(=O)[C@H](C)NC(=O)[C@H](CCSC)NC(=O)[C@H](CC(C)C)NC(=O)[C@H](Cc1c[nH]cn1)NC(=O)[C@H](C)NC(=O)[C@H](CC(N)=O)NC(=O)[C@H](C)NC(=O)[C@H](C)NC(=O)[C@H](C)NC(=O)[C@H](CCC(N)=O)NC(=O)[C@H](C)NC(=O)[C@H](CCCNC(=N)N)NC(=O)[C@H](CC(C)C)NC(=O)[C@H](CC(N)=O)NC(=O)[C@H](CCCCN)NC(=O)[C@H](C)NC(=O)[C@H](CCCCN)NC(=O)[C@H](C)NC(=O)[C@H](CSC1CC(=O)N(CC)C1=O)NC(=O)[C@H](CC(N)=O)NC(=O)[C@H](Cc1ccccc1)NC(=O)[C@H](CC(C)C)NC(=O)[C@H](CC(C)C)NC(=O)[C@H](CC(N)=O)NC(=O)[C@H](CCSC)NC(=O)[C@@H](NC(=O)[C@H](CC(N)=O)NC(=O)[C@@H](NC(=O)[C@@H]1CCCN1C(=O)[C@@H](NC(=O)[C@H](CC(=O)O)NC(=O)[C@H](CC(C)C)NC(=O)[C@H](CO)NC(=O)[C@H](CC(C)C)NC(=O)[C@@H](NC(=O)[C@H](Cc1ccccc1)NC(=O)[C@H](CCCCN)NC(=O)[C@@H](N)[C@@H](C)O)[C@@H](C)O)C(C)C)[C@@H](C)O)[C@@H](C)CC)C(N)=O (stereo partly drawn) [SEQ ID NO: 51, TKFTL SLDVP TNIMN LLFNC(-NES) AKAKN LRAQA AANAH LMAQI-NH2] (H-TKFTLSLDVPTNIMNLLFNC(Succinimide(1-Et,3-yl))AKAKNLRAQAAANAHLMAQI-NH2; N-terminus assumed)
EC50 [1]: 1.62 nM | Log DR [M] (Table 13): 0.68
